Experimental data as given in the supplement of paper PMC10307832.

Tests used:
Test in all cases: relative viability (nuclei count vs DMSO), 5 days (fraction); higher = more cells survive
[1] = compound: C1=CC=C2C(=C1)C=CC(=C2SSC3=C(C=CC4=CC=CC=C43)O)O [IPA-3] + Cc1cc(Nc2cc(N3CCN(C)CC3)nc(Sc3ccc(NC(=O)C4CC4)cc3)n2)n[nH]1 [Tozasertib] (partner 0.1 µM)
How it was run: (§1)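 Five library-drug doses in √10 steps were combined with a fixed anchor-drug dose, or a single drug was given alone, by pin tool to lung cancer cell lines in 1536-well plates the day after seeding. Nuclei were stained and counted after 5 days. Relative viability is the nuclei count in treated wells over that in vehicle wells, taken as the median of duplicate plates.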

[2] = compound: C1=CC=C2C(=C1)C=CC(=C2SSC3=C(C=CC4=CC=CC=C43)O)O [IPA-3] + O=C(c1cc(Cc2n[nH]c(=O)c3ccccc23)ccc1F)N1CCN(C(=O)C2CC2)CC1 [Olaparib] (partner 8 µM)
How it was run: as §1

[3] = compound: Cc1ccc(-n2nc(C(C)(C)C)cc2NC(=O)Nc2ccc(OCCN3CCOCC3)c3ccccc23)cc1 [Doramapimod] + C[C@]1(O)C[C@@H](c2nc(-c3ccc4ccc(-c5ccccc5)nc4c3)c3c(N)nccn32)C1 [Linsitinib] (partner 1 µM)
How it was run: as §1

[4] = compound: Cc1ccc(-n2nc(C(C)(C)C)cc2NC(=O)Nc2ccc(OCCN3CCOCC3)c3ccccc23)cc1 [Doramapimod] + N=C(N)NC(=N)NCCc1ccccc1 [Phenformin] (partner 250 µM)
How it was run: as §1

Cell Line	relative viability ([1]; first compound 0.2 µM)	relative viability ([1]; first compound 0.6325 µM)	relative viability ([1]; first compound 2 µM)	relative viability ([1]; first compound 6.325 µM)	relative viability ([1]; first compound 20 µM)	relative viability ([2]; first compound 0.2 µM)	relative viability ([2]; first compound 0.6325 µM)	relative viability ([2]; first compound 2 µM)	relative viability ([2]; first compound 6.325 µM)	relative viability ([2]; first compound 20 µM)	relative viability ([3]; first compound 0.02 µM)	relative viability ([3]; first compound 0.06325 µM)	relative viability ([3]; first compound 0.2 µM)	relative viability ([3]; first compound 0.6325 µM)	relative viability ([3]; first compound 2 µM)	relative viability ([4]; first compound 0.02 µM)	relative viability ([4]; first compound 0.06325 µM)	relative viability ([4]; first compound 0.2 µM)	relative viability ([4]; first compound 0.6325 µM)	relative viability ([4]; first compound 2 µM)
NCI-H661	0.328	0.356	0.358	0.338	0.347	0.784	0.705	0.786	0.716	0.738	0.634	0.568	0.555	0.741	0.599	0.297	0.272	0.274	0.289	0.308
NCI-H2228	0.245	0.255	0.29	0.301	0.294	0.662	0.514	0.404	0.559	0.471	0.762	0.449	0.632	0.65	0.464	0.249	0.385	0.273	0.333	0.27
NCI-H1395	0.732	0.761	0.72	0.733	0.8	0.507	0.456	0.465	0.474	0.457	1.11	1.04	1.17	1.13	0.997	0.483	0.474	0.44	0.485	0.365
NCI-H520	0.459	0.444	0.468	0.434	0.447	0.322	0.278		0.367	0.298	0.937	1.11	0.838	0.963	0.897	0.632	0.62	0.533	0.492	0.346
NCI-H441	0.738	0.596	0.739	0.739	0.524	0.759	0.507	0.48	0.409	0.432	0.528	0.512	0.541	0.553	0.442	0.895	0.808	0.828		0.729
